Laboratory results taken from ChEMBL document CHEMBL5390238, “The mechanisms of multidrug resistance of breast cancer and research progress on related reversal agents” (Bioorg Med Chem, 2023).

What was measured:
[1] = tested on: HaCaT; test: Cytotoxicity against human HaCaT cells incubated for 72 hrs by MTT assay; type: functional, cell-based
[2] = Antiproliferative activity against multidrug resistant human MDA-MB-231/TxR cells assessed as inhibition of cell growth preincubated for 24 hrs followed by taxol treatment for 24 hrs by MTT assay; type: functional, cell-based
[3] = tested on: NCI/ADR-RES; test: Cytotoxicity against human MCF7ADR cells; type: functional, cell-based
[4] = tested on: MCF7; test: Cytotoxicity against human MCF7 cells assessed as inhibition of cell growth in presence of paclitaxel by MTT assay; type: functional, cell-based
[5] = Antiproliferative activity against human MCF7/BUS cells assessed as cell growth inhibition incubated for 6 days by MTT assay; type: functional, cell-based; details: 144 h
[6] = tested on: MCF7; test: Cytotoxicity against human MCF7 cells; type: functional, cell-based
[7] = tested on: MCF7; test: Antiproliferative activity against human MCF-7 cells assessed as cell growth inhibition; type: functional
[8] = tested on: MDA-MB-231; test: Antiproliferative activity against human MDA-MB-231 cells assessed as cell growth inhibition; type: functional
[9] = tested on: HepG2; test: Antiproliferative activity against human HepG2 cells assessed as inhibition of cell growth incubated for 48 hrs by MTT assay; type: functional, cell-based; details: HepG2, 48 h
[10] = tested on: HeLa; test: Antiproliferative activity against human HeLa cells assessed as inhibition of cell growth incubated for 72 hrs by MTT assay; type: functional, cell-based
[11] = tested on: HCT-116; test: Cytotoxicity against human HCT-116 cells assessed as cell viability measured as mitochondrial NADH-dependent dehydrogenase activity incubated for 72 to 120 hrs; type: functional, cell-based
[12] = biological target: T1, Estrogen receptor (Homo sapiens, UniProt P03372); test: Inhibition of human ERalpha expressed in Saccharomyces cerevisiae co-expressing lacZ using CPRG as substrate incubated for 48 hrs by Colorimetric assay
T1 sequence (P03372 whole entry): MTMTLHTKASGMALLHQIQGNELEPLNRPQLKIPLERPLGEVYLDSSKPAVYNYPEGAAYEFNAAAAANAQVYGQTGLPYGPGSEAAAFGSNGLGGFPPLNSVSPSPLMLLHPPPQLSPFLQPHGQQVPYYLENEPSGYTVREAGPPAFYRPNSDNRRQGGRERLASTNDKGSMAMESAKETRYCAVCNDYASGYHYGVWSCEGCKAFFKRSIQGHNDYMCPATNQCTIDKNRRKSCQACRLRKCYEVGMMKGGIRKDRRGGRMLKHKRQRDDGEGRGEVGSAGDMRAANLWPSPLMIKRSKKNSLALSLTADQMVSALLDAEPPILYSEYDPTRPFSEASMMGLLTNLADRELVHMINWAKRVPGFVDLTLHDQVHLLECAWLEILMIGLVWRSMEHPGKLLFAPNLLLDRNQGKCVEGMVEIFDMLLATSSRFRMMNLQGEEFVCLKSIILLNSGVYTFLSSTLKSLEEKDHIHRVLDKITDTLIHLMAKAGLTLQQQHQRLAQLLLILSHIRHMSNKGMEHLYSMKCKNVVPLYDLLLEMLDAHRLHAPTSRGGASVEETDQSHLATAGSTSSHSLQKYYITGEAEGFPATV

[13] = Cytotoxicity against human RL14 cells incubated for 72 hrs by resazurin blue assay; type: toxicity, cell-based
[14] = tested on: MCF7; test: Antiproliferative activity against human MCF-7 cells assessed as inhibition of cell growth incubated for 48 hrs by MTT assay; type: functional, cell-based; details: MCF7, 48 h

Oc1ccc(/C=C/c2cc(O)cc(O)c2)cc1 [RESVERATROL]
IC50 [1]: 183000 nM

CC(C)=CCC[C@@H](C(=O)O)[C@H]1CC[C@@]2(C)C3=C(CC[C@]12C)[C@@]1(C)CC[C@H](O)C(C)(C)[C@@H]1CC3 [TRAMETENOLIC ACID]
IC50 [2]: 102 nM

O=c1cc(-c2ccc(O)cc2)oc2cc(O)cc(O)c12 [APIGENIN]
IC50 [3]: 200 nM

COc1cc(/C=C/C(=O)CC(=O)/C=C/c2ccc(O)c(OC)c2)ccc1O [CURCUMIN]
IC50 [4]: 88 nM

CC/C(=C(\c1ccccc1)c1ccc(OCCN(C)C)cc1)c1ccccc1 [TAMOXIFEN]
IC50 [5]: 503 nM

CO[C@]1(CC[C@H](C)CO[C@@H]2O[C@H](CO)[C@@H](O)[C@H](O)[C@H]2O)O[C@H]2C[C@H]3[C@@H]4CC[C@@H]5C[C@@H](O[C@@H]6O[C@H](CO)[C@H](O[C@@H]7O[C@H](CO)[C@@H](O)[C@H](O[C@@H]8OC[C@@H](O)[C@H](O)[C@H]8O)[C@H]7O[C@@H]7O[C@H](CO)[C@H](O)[C@H](O)[C@H]7O)[C@H](O)[C@H]6O)CC[C@]5(C)[C@H]4CC[C@]3(C)[C@H]2[C@@H]1C
IC50 [6]: 5.2 nM

CCC(Cc1ccccc1)=C(c1ccc(OCCN2CCCC2)cc1)c1ccc(OC(=O)NCc2ccccc2)cc1
GI50 [7]: 90 nM | GI50 [8]: 1840 nM

COc1cc([C@H]2OC[C@H]3[C@@H]2CO[C@@H]3c2ccc(O)c(OC)c2)ccc1O
IC50 [9]: 51 nM

Cc1nc(C)c(COC(=O)[C@]23CCC(C)(C)C[C@H]2C2=CC[C@@H]4[C@@]5(C)CC[C@H](OC(=O)CN)C(C)(C)[C@@H]5CC[C@@]4(C)[C@]2(C)CC3)nc1C
IC50 [10]: 3200 nM

COc1ccc(/C(C#N)=C/c2ccc(N3CCC(O)CC3)s2)cc1OC
IC50 [11]: 10 nM

CCC(Cc1ccc(OC)cc1)=C(c1ccc(O)cc1)c1ccc(OCCCN(C)C)cc1
IC50 [12]: 510 nM | IC50 [5]: 96 nM

COc1cccc2c1C(=O)c1c(O)c3c(c(O)c1C2=O)C[C@@](O)(C(=O)CO)C[C@@H]3O[C@H]1C[C@H](NC(=O)CNC(=O)Oc2ccc(C3=C(O)C(=O)C4C(O)=CC(O)=CC4O3)cc2O)[C@H](O)[C@H](C)O1 (stereo partly specified)
IC50 at 72 h [13]: 5 nM

COc1cc(/C=C/c2ccc(SC)cc2)cc(OC)c1
IC50 [1]: 25300 nM

CCNCc1ccccc1[Se][Se]c1ccccc1CNCC
IC50 [14]: 15 nM
